The values that follow come from patent US20100015727A1, “METHOD FOR DETERMINING TRANSPORT ACTIVITY OF A TRANSPORT PROTEIN” (BOEHRINGER INGELHEIM INTERNATIONAL GMBH, priority 2006, published 2010).

This test has as its target T1, MRP4 (Homo sapiens, UniProt O15439).
T1 construct: infected with a baculovirus construct containing the full-length cDNA encoding MRP4; made in house; host or cells: Hi5 or Sf9 insect cells (baculovirus)
T1 sequence (O15439 1-1325): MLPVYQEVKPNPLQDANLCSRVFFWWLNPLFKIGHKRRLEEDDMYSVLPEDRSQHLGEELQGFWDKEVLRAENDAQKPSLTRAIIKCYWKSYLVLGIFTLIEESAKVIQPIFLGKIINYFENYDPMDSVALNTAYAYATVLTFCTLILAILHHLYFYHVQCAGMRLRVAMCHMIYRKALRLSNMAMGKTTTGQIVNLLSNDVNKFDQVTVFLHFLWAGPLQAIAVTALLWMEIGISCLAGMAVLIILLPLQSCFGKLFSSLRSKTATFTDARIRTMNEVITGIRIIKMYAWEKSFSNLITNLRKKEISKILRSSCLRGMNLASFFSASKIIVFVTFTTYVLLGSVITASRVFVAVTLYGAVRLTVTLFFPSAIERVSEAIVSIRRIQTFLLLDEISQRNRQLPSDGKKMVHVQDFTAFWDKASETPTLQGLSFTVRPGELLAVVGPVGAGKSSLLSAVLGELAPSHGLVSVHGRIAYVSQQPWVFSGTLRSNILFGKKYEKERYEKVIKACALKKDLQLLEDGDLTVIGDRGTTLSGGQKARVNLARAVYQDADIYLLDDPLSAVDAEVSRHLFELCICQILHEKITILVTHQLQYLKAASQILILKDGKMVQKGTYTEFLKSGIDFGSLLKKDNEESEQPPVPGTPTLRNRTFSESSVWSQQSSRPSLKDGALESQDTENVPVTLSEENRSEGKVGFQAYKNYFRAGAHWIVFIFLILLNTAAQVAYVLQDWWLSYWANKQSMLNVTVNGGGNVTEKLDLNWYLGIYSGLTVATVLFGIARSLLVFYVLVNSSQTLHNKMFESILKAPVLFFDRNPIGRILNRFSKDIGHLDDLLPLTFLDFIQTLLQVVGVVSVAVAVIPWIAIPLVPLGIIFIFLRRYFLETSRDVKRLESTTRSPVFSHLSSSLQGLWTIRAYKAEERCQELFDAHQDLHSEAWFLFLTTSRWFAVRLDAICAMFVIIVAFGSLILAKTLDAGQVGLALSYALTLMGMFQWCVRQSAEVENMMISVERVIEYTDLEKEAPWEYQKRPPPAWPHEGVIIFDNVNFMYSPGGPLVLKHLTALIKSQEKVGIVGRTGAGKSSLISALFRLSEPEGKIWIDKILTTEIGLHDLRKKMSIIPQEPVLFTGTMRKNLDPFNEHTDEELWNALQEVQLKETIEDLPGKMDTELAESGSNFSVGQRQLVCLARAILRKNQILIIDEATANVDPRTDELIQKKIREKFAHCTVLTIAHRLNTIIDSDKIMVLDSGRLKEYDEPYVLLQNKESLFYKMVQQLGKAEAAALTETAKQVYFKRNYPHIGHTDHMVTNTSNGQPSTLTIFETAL
Nature of the test: SPA assay of MRP4 transport activity (3H-folic acid uptake into membrane vesicles). The format is biochemical. The note with it: inhibition of MRP4 transport of 3H-folic acid into membrane vesicles from baculovirus-infected insect cells; Protein A SPA beads, anti-MRP4 rabbit antiserum.

Experimental: • 1) Membrane vesicles from insect cells (Hi5 or Sf9) infected with a baculovirus construct containing the full-length cDNA encoding MRP4 are prepared as described by van Aubel et al. (van Aubel et al., 2002) with some modifications: Hi5 cells are cultured in suspension to a cell density of 1×10^6 cells/ml in Insect-Xpress serum free insect cell medium and infected with baculovirus construct containing the full-length cDNA encoding MRP4. Three days after infection, cells are collected by centrifugation at 3000 rpm for 10 min. […] Protein concentration of the membrane preparation is determined using standard methods, e.g. the BCA protein assay (Pierce, product number 23250). • 2) Determination of transport activity of MRP4: Membrane vesicles prepared in 1) are diluted in Tris/sucrose buffer to a concentration of 3.3 μg protein/μl. […] Luminescence signals are measured with the LEADSeeker or TopCount system after 30 min, 1 h, 2 h, 4 h, or up to 24 h. • 3) Calculation of inhibitory effect of a test compound: The relative transport activities of MRP4 determined in the presence of a test compound is calculated as percentage of luminescence determined in the presence of the test compound compared to luminescence determined in the absence of the test compound.

As usually defined, the IC50 is the point on the concentration scale where inhibition reaches its midpoint. Regarding `OCCN(CCO)c1nc(N2CCCCC2)c2nc(N(CCO)CCO)nc(N3CCCCC3)c2n1` [Dipyridamole], 35 µM corresponded to half-maximal inhibition (IC50).
